{"source": "ChEMBL document CHEMBL3734670", "about": "“Synthetic spirocyclic endoperoxides: new antimalarial scaffolds” (Medchemcomm, 2015)", "key": {"Plasmodium falciparum [1]": {"test_system": "Plasmodium falciparum", "assay": "Antiplasmodial activity against chloroquine-sensitive Plasmodium falciparum D10 infected in human A positive erythrocyte assessed as inhibition of parasite growth after 72 hrs by parasite lactate dehydrogenase assay", "type": "functional, organism-based", "conditions": "D10, 72 h"}, "Plasmodium falciparum [2]": {"test_system": "Plasmodium falciparum", "assay": "Antiplasmodial activity against chloroquine-resistant Plasmodium falciparum W2 infected in human A positive erythrocyte assessed as inhibition of parasite growth after 72 hrs by parasite lactate dehydrogenase assay", "type": "functional, organism-based", "conditions": "W2, 72 h"}, "Plasmodium berghei": {"test_system": "Plasmodium berghei", "assay": "Antimalarial activity against chloroquine-sensitive Plasmodium berghei ANKA erythrocytic stage infected in BALB/c mouse assessed as reduction in parasitaemia at 100 mg/kg, ip qd after 5 days by Peters 4 days test", "type": "functional", "set-up": "scale not given: the % may be the effect or the level left"}, "Mus musculus": {"test_system": "Mus musculus", "assay": "Toxicity against BALB/c mouse infected with chloroquine-sensitive Plasmodium berghei ANKA at 100 mg/kg, ip qd for 5 days", "type": "organism-based", "conditions": "in vivo, 120 h"}, "[3]": {"assay": "Cytotoxicity against mouse NIH/3T3 cells assessed as cell viability after 24 hrs by neutral red uptake assay", "type": "cell-based, NIH3T3", "conditions": "read-out: TC50"}}}
{"molecule": "C[C@@]12CCO[C@@H]1OO[C@@](C)(C1CCCCC1)C2", "note": "(mixture of isomers)", "values": [{"measurement": "IC50", "setting": "Plasmodium falciparum [1]", "value": 0.39, "unit": "µM"}, {"measurement": "IC50", "setting": "Plasmodium falciparum [2]", "value": 0.14, "unit": "µM"}]}
{"molecule": "C[C@@]1(CC23CC4CC(CC(C4)C2)C3)C[C@]2(C)CCO[C@@H]2OO1", "note": "(mixture of isomers)", "values": [{"measurement": "IC50", "setting": "Plasmodium falciparum [1]", "value": 0.85, "unit": "µM"}, {"measurement": "IC50", "setting": "Plasmodium falciparum [2]", "value": 0.39, "unit": "µM"}]}
{"molecule": "C[C@@]12CCO[C@@H]1OO[C@@](C)(C1CCCC1)C2", "note": "(mixture of isomers)", "values": [{"measurement": "IC50", "setting": "Plasmodium falciparum [1]", "value": 1.2, "unit": "µM"}, {"measurement": "IC50", "setting": "Plasmodium falciparum [2]", "value": 0.8, "unit": "µM"}]}
{"molecule": "C[C@@]12CCO[C@@H]1OOC1(C2)C2CC3CC(C2)CC1C3", "note": "(mixture of isomers)", "values": [{"measurement": "IC50", "setting": "Plasmodium falciparum [1]", "value": 0.61, "unit": "µM"}, {"measurement": "IC50", "setting": "Plasmodium falciparum [2]", "value": 0.16, "unit": "µM"}, {"measurement": "Activity", "setting": "Plasmodium berghei", "value": 72.5, "unit": "%"}, {"measurement": "Activity", "setting": "Mus musculus", "value": "Non-toxic"}, {"measurement": "CC50 at 24 h", "setting": "[3]", "value": 150, "unit": "µM"}]}
{"molecule": "C1CCC2(CC1)OO[C@H]1CCCC[C@H]12", "note": "(racemic)", "values": [{"measurement": "IC50", "setting": "Plasmodium falciparum [1]", "value": 7.2, "unit": "µM"}, {"measurement": "IC50", "setting": "Plasmodium falciparum [2]", "value": 3.2, "unit": "µM"}]}
{"molecule": "C[C@@]12CCO[C@@H]1OOC21CCCCC1", "note": "(racemic)", "values": [{"measurement": "IC50", "setting": "Plasmodium falciparum [1]", "value": 8.5, "unit": "µM"}, {"measurement": "IC50", "setting": "Plasmodium falciparum [2]", "value": "> 25", "unit": "µM"}]}
{"molecule": "C[C@@]12CCO[C@@H]1OOC1(CCCCC1)C2", "note": "(racemic)", "values": [{"measurement": "IC50", "setting": "Plasmodium falciparum [1]", "value": 5.3, "unit": "µM"}, {"measurement": "IC50", "setting": "Plasmodium falciparum [2]", "value": 1.1, "unit": "µM"}]}
{"molecule": "C[C@@]12CCO[C@@H]1OOC1(CCCCC1)CC2", "note": "(racemic)", "values": [{"measurement": "IC50", "setting": "Plasmodium falciparum [1]", "value": "> 20", "unit": "µM"}, {"measurement": "IC50", "setting": "Plasmodium falciparum [2]", "value": "> 17", "unit": "µM"}]}
{"molecule": "C[C@@]12CCO[C@@H]1OOC1(CCCC1)C2", "note": "(racemic)", "values": [{"measurement": "IC50", "setting": "Plasmodium falciparum [1]", "value": 0.84, "unit": "µM"}, {"measurement": "IC50", "setting": "Plasmodium falciparum [2]", "value": 0.47, "unit": "µM"}]}
{"molecule": "C[C@@H]1CC[C@H]2[C@@H](C)C(=O)O[C@@H]3O[C@@]4(C)CC[C@@H]1[C@]32OO4", "note": "[ARTEMISININ]", "values": [{"measurement": "IC50", "setting": "Plasmodium falciparum [2]", "value": 0.012, "unit": "µM"}]}
